From US9527832B2, “Substituted condensed pyrimidine compounds” (GRÜNENTHAL GMBH, priority 2013, dated 2016)

Biological target: T1, human PDE4B1 (Homo sapiens, UniProt Q07343)
T1 construct: host or cells: Sf9 cells
Test: cAMP HTRF assay to determine the activity of hPDE4B1
Format: biochemical
Details: for inhibition at 1 µM: Percentage inhibition of PDE4B at 1 μM test concentration; for IC50: dose response measurements with eight concentrations, reported as ranges, read-out: IC50
Method: cAMP HTRF® Assay to Determine the Activity of hPDE4B1
The inhibiting effect of the compounds on the enzyme activity of human PDE4B1 was measured by the quantification of 5′-adenosine monophosphate (5′-AMP), which is formed from 3′,5′-cyclic adenosine monophosphate (cAMP). Human recombinant enzyme, expressed in Sf9 cells, and the HTRF (homogeneous time-resolved fluorescence) detection method were used in the assay.
The test compound or water (control) was mixed with the human recombinant PDE4B1 enzyme (4.8 U) in a buffer consisting of 44.4 mM tris-HCl, 5.28 mM MgCl2, 2.64 mM DTT and 0.044% Tween 20 (pH 7.8). After adding the cAMP enzyme substrate (final concentration 40 nM), the mixture was incubated for 30 minutes at room temperature. Then a fluorescence acceptor (Dye2 marked with cAMP), a fluorescence donor (anti-cAMP antibody marked with a europium cryptate) and the non-specific phosphodiesterase inhibitor IBMX (3-isobutyl-1-methylxanthine; final concentration 1 mM) were added. After 60 minutes the fluorescence transfer, which correlates with the amount of remaining cAMP, was measured with a microplate reader (Rubystar, BMG) at λex=337 nm, λem=620 nm and λem=665 nm. The enzyme activity was calculated from the quotient formed from the measured signal at 665 nm and that at 620 nm. The result was expressed as the percentage inhibition of enzyme activity of the control (without PDE4 inhibitor). The enzyme was omitted for measurement of the basal control.
IC50 values (IC50=concentration causing a half-maximal inhibition of control specific activity) were derived from dose response measurements with eight different concentrations (n=2; N=1-2).
Literature: N. Saldou et al., Comparison of recombinant human PDE4 isoforms: interaction with substrate and inhibitors, Cell. Signal. Vol. 10, No. 6, 427-440, 1998

T1 sequence (Q07343 whole entry): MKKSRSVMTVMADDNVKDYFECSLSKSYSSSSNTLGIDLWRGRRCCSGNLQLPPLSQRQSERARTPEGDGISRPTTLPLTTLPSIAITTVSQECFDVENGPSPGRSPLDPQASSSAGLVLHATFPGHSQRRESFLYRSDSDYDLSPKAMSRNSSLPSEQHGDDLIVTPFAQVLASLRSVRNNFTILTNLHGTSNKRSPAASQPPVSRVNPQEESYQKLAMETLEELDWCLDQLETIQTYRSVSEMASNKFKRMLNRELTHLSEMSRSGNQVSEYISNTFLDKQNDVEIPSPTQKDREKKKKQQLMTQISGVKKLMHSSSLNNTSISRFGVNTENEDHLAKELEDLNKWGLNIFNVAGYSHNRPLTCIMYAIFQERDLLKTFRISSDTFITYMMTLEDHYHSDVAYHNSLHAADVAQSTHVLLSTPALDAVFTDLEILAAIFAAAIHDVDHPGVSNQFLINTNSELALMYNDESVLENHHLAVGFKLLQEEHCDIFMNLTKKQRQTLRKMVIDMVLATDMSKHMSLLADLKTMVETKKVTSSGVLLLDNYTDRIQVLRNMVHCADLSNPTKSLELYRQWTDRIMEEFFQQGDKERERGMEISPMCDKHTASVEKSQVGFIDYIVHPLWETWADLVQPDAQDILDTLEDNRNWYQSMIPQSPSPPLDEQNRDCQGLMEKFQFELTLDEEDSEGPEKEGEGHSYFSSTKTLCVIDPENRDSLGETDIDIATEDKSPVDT

| Compound | inhibition at 1 µM | IC50 |
| --- | --- | --- |
| CN(C)C(=O)COc1ccc2c(c1)N(c1nc(-c3ccccc3F)nc3c1C[S+]([O-])C3)CC2 (stereo not drawn) [2-100, 2-[[1-[2-(2-Fluorophenyl)-6-oxo-5,7-dihydro-thieno[3,4-d]pyrimidin-4-yl]-2,3-dihydro-1H-indol-6-yl]oxy]-N,N-dimethyl-acetamide] | 100% | < 100 nM |
| CN(C)C(=O)COc1ccc2c(c1)N(c1nc(-c3cccc(C(F)(F)F)c3)nc3c1C[S+]([O-])C3)CC2 (stereo not drawn) [2-101, N,N-Dimethyl-2-[[1-[6-oxo-2-[3-(trifluoromethyl)phenyl]-5,7-dihydro-thieno[3,4-d]pyrimidin-4-yl]-2,3-dihydro-1H-indol-6-yl]oxy]-acetamide] | 120% | < 100 nM |
| CN(C)C(=O)COc1ccc2c(c1)N(c1nc(-c3ccoc3)nc3c1C[S+]([O-])C3)CC2 (stereo not drawn) [2-102, 2-[[1-[2-(Furan-3-yl)-6-oxo-5,7-dihydro-thieno[3,4-d]pyrimidin-4-yl]-2,3-dihydro-1H-indol-6-yl]oxy]-N,N-dimethyl-acetamide] | 110% | < 100 nM |
| CN(C)C(=O)COc1ccc2c(c1)N(c1nc(-c3ccccc3C#N)nc3c1C[S+]([O-])C3)CC2 (stereo not drawn) [2-103, 2-[[1-[2-(2-Cyano-phenyl)-6-oxo-5,7-dihydro-thieno[3,4-d]pyrimidin-4-yl]-2,3-dihydro-1H-indol-6-yl]oxy]-N,N-dimethyl-acetamide] | 91% | 100 to 1000 nM |
| CN(C)C(=O)COc1ccc2c(c1)N(c1nc(-c3ccccc3NS(C)(=O)=O)nc3c1C[S+]([O-])C3)CC2 (stereo not drawn) [2-104, 2-[[1-[2-[2-(Methanesulfonamido)-phenyl]-6-oxo-5,7-dihydro-thieno[3,4-d]pyrimidin-4-yl]-2,3-dihydro-1H-indol-6-yl]oxy]-N,N-dimethyl-acetamide] | 85% | 100 to 1000 nM |
| COc1ncccc1-c1nc2c(c(N3CCc4ccc(OCC(=O)N(C)C)cc43)n1)C[S+]([O-])C2 (stereo not drawn) [2-105, 2-[[1-[2-(2-Methoxy-pyridin-3-yl)-6-oxo-5,7-dihydro-thieno[3,4-d]pyrimidin-4-yl]-2,3-dihydro-1H-indol-6-yl]oxy]-N,N-dimethyl-acetamide] | 77% | 100 to 1000 nM |
| CN(C)C(=O)COc1ccc2c(c1)N(c1nc(-c3ccc(S(C)(=O)=O)cc3)nc3c1C[S+]([O-])C3)CC2 (stereo not drawn) [2-106, N,N-Dimethyl-2-[[1-[2-(4-methylsulfonyl-phenyl)-6-oxo-5,7-dihydro-thieno[3,4-d]pyrimidin-4-yl]-2,3-dihydro-1H-indol-6-yl]oxy]-acetamide] | 104% | < 100 nM |
| CN(C)C(=O)COc1ccc2c(c1)N(c1nc(-c3cccc(S(C)(=O)=O)c3)nc3c1C[S+]([O-])C3)CC2 (stereo not drawn) [2-107, N,N-Dimethyl-2-[[1-[2-(3-methylsulfonyl-phenyl)-6-oxo-5,7-dihydro-thieno[3,4-d]pyrimidin-4-yl]-2,3-dihydro-1H-indol-6-yl]oxy]-acetamide] | 113% | < 100 nM |
| CN(C)C(=O)COc1ccc2c(c1)N(c1nc(-c3cccc(C(N)=O)c3)nc3c1C[S+]([O-])C3)CC2 (stereo not drawn) [2-108, 3-[4-[6-[(Dimethyl-carbamoyl)-methoxy]-2,3-dihydro-1H-indol-1-yl]-6-oxo-5,7-dihydro-thieno[3,4-d]pyrimidin-2-yl]-benzamide] | 62% |  |
| CC(=O)Nc1ccc(-c2nc3c(c(N4CCc5ccc(OCC(=O)N(C)C)cc54)n2)C[S+]([O-])C3)cc1 (stereo not drawn) [2-109, 2-[[1-[2-(4-Acetylamino-phenyl)-6-oxo-5,7-dihydro-thieno[3,4-d]pyrimidin-4-yl]-2,3-dihydro-1H-indol-6-yl]oxy]-N,N-dimethyl-acetamide] | 98% | < 100 nM |
| CCOc1ccc(-c2nc3c(c(N4CCc5ccc(OCC(=O)N(C)C)cc54)n2)C[S+]([O-])C3)cc1 (stereo not drawn) [2-110, 2-[[1-[2-(4-Ethoxyphenyl)-6-oxo-5,7-dihydro-thieno[3,4-d]pyrimidin-4-yl]-2,3-dihydro-1H-indol-6-yl]oxy]-N,N-dimethyl-acetamide] | 119% | < 100 nM |
